Assays:
[1] = biological target: Serine/threonine-protein kinase BRSK2 (Homo sapiens) (UniProt Q8IWQ3); assay: Inhibition of wild-type human full length BRSK2 (M1 to L674 residues) expressed in bacterial expression system assessed as residual activity at 1 uM by Kinomescan method relative to control
[2] = biological target: Ephrin type-B receptor 3 (Homo sapiens) (UniProt P54753); assay: Inhibition of wild-type human partial length EPHB3 (Q599 to T928 residues) expressed in bacterial expression system assessed as residual activity at 1 uM by Kinomescan method relative to control
[3] = test system: Receptor-type tyrosine-protein kinase FLT3 (Homo sapiens), P36888 [D835V]; assay: Inhibition of human partial length FLT3 D835V mutant (V592 to Y969 residues) expressed in bacterial expression system assessed as residual activity at 1 uM by Kinomescan method relative to control
[4] = biological target: Dual specificity tyrosine-phosphorylation-regulated kinase 1A (Homo sapiens) (UniProt Q13627); assay: Inhibition of wild-type human partial length DYRK1A (H129 to S509 residues) expressed in mammalian expression system assessed as residual activity at 1 uM by Kinomescan method relative to control
[5] = test system: Phosphatidylinositol 4,5-bisphosphate 3-kinase catalytic subunit alpha isoform (Homo sapiens), P42336 [Q546K]; assay: Inhibition of human partial length PIK3CA Q546K mutant (R108 to N1068 residues) expressed in mammalian expression system assessed as residual activity at 1 uM by Kinomescan method relative to control
[6] = MRT (0 to t) in Sprague-Dawley rat at 1 mg/kg, iv by LC-MS/MS method; type: ADME, organism-based; settings: in vivo
[7] = biological target: Serine/threonine-protein kinase WNK4 (Homo sapiens) (UniProt Q96J92); assay: Inhibition of wild-type human partial length WNK4 (A31 to D461 residues) expressed in mammalian expression system assessed as residual activity at 1 uM by Kinomescan method relative to control
[8] = test system: Tyrosine-protein kinase ABL1 (Homo sapiens), P00519 [M351T]; assay: Inhibition of human phosphorylated ABL1 M351T mutant (S229 to K512 residues) expressed in mammalian expression system assessed as residual activity at 1 uM by Kinomescan method relative to control
[9] = biological target: Serine/threonine-protein kinase SIK2 (Homo sapiens) (UniProt Q9H0K1); assay: Inhibition of wild-type human full length SIK2 (M1 to N926 residues) expressed in bacterial expression system assessed as residual activity at 1 uM by Kinomescan method relative to control
[10] = biological target: Serine/threonine-protein kinase PAK 5 (Homo sapiens) (UniProt Q9P286); assay: Inhibition of wild-type human partial length PAK7 (Y400 to H719 residues) expressed in bacterial expression system assessed as residual activity at 1 uM by Kinomescan method relative to control
[11] = biological target: Dual specificity mitogen-activated protein kinase kinase 3 (Homo sapiens) (UniProt P46734); assay: Inhibition of wild-type human full length MEK3 (M1 to S318 residues) expressed in mammalian expression system assessed as residual activity at 1 uM by Kinomescan method relative to control
[12] = biological target: AP2-associated protein kinase 1 (Homo sapiens) (UniProt Q2M2I8); assay: Inhibition of human wild-type AAK1 (G25 to L333 residues) expressed in bacterial expression system assessed as residual activity at 1 uM by Kinomescan method relative to control
[13] = biological target: Leukocyte tyrosine kinase receptor (Homo sapiens) (UniProt P29376); assay: Inhibition of wild-type human partial length LTK (P422 to S744 residues) expressed in bacterial expression system assessed as residual activity at 1 uM by Kinomescan method relative to control
[14] = biological target: Calcium/calmodulin-dependent protein kinase type 1 (Homo sapiens) (UniProt Q14012); assay: Inhibition of wild-type human full length CAMK1 (M1 to L370 residues) expressed in bacterial expression system assessed as residual activity at 1 uM by Kinomescan method relative to control
[15] = biological target: Serine/threonine-protein kinase PAK 1 (Homo sapiens) (UniProt Q13153); assay: Inhibition of wild-type human partial length PAK1 (S149 to H545 residues) expressed in bacterial expression system assessed as residual activity at 1 uM by Kinomescan method relative to control
[16] = test system: Leucine-rich repeat serine/threonine-protein kinase 2 (Homo sapiens), Q5S007 [G2019S]; assay: Inhibition of human partial length LRRK2 G2019S mutant (H970 to E2527 residues) expressed in mammalian expression system assessed as residual activity at 1 uM by Kinomescan method relative to control
[17] = AUC (0 to infinity) in Sprague-Dawley rat at 10 mg/kg, po by LC-MS/MS method; type: ADME, organism-based; parameters: dose 10 mg/kg, route oral, time infinity; settings: in vivo
[18] = biological target: Activin receptor type-1B (Homo sapiens) (UniProt P36896); assay: Inhibition of wild-type human ACVR1B (S187 to I505 residues) expressed in bacterial expression system assessed as residual activity at 1 uM by Kinomescan method relative to control
[19] = biological target: LIM domain kinase 2 (Homo sapiens) (UniProt P53671); assay: Inhibition of wild-type human full length LIMK2 (M1 to P638 residues) expressed in bacterial expression system assessed as residual activity at 1 uM by Kinomescan method relative to control
[20] = test system: Proto-oncogene tyrosine-protein kinase receptor Ret (Homo sapiens), P07949 [V804M]; assay: Inhibition of human partial length RET V804M mutant (E713 to D1014 residues) expressed in bacterial expression system assessed as residual activity at 1 uM by Kinomescan method relative to control
[21] = biological target: Activin receptor type-1 (Homo sapiens) (UniProt Q04771); assay: Inhibition of wild-type human ACVR1 (C188 to C509 residues) expressed in bacterial expression system assessed as residual activity at 1 uM by Kinomescan method relative to control
[22] = biological target: Misshapen-like kinase 1 (Homo sapiens) (UniProt Q8N4C8); assay: Inhibition of wild-type human partial length MINK (M1 to K312 residues) expressed in mammalian expression system assessed as residual activity at 1 uM by Kinomescan method relative to control
[23] = biological target: G protein-coupled receptor kinase 3 (Homo sapiens) (UniProt P35626); assay: Inhibition of wild-type human full length GRK3 (M1 to L688 residues) expressed in mammalian expression system assessed as residual activity at 1 uM by Kinomescan method relative to control
[24] = test system: Tyrosine-protein kinase ABL1 (Homo sapiens), P00519 [F317L]; assay: Inhibition of human non-phosphorylated ABL1 F317L mutant (S229 to K512 residues) expressed in mammalian expression system assessed as residual activity at 1 uM by Kinomescan method relative to control
[25] = biological target: Casein kinase I isoform gamma-3 (Homo sapiens) (UniProt Q9Y6M4); assay: Inhibition of wild-type human full length CSNK1G3 (M1 to K447 residues) expressed in bacterial expression system assessed as residual activity at 1 uM by Kinomescan method relative to control
[26] = AUC (0 to t) in Sprague-Dawley rat at 10 mg/kg, po by LC-MS/MS method; type: ADME, organism-based; settings: in vivo

Sequence of Leukocyte tyrosine kinase receptor (Homo sapiens) (P29376 whole entry, the tested form may be a part): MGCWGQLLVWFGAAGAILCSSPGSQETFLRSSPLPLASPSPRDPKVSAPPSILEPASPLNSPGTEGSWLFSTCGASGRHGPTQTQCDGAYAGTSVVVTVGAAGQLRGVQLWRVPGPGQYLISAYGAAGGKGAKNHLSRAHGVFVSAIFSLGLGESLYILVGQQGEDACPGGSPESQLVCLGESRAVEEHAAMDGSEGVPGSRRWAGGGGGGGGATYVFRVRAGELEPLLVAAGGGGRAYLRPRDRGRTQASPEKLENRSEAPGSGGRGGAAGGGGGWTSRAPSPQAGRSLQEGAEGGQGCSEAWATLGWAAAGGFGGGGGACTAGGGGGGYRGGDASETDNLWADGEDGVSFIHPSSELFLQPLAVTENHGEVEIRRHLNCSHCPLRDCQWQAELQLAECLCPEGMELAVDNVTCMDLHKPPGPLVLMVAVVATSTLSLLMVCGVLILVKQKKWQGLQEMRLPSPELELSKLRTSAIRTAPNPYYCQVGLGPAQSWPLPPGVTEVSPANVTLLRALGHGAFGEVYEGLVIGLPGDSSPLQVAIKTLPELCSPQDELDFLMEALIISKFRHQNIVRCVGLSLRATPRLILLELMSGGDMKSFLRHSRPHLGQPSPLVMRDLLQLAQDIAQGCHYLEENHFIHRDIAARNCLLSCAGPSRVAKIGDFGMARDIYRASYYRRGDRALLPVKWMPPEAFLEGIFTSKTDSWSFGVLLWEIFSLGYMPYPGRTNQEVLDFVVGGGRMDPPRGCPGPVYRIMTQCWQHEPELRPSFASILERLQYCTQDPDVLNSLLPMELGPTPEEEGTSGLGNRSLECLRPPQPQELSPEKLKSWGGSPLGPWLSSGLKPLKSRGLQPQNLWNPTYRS
Sequence of Serine/threonine-protein kinase SIK2 (Homo sapiens) (Q9H0K1 whole entry, looked up, the tested form may be a part): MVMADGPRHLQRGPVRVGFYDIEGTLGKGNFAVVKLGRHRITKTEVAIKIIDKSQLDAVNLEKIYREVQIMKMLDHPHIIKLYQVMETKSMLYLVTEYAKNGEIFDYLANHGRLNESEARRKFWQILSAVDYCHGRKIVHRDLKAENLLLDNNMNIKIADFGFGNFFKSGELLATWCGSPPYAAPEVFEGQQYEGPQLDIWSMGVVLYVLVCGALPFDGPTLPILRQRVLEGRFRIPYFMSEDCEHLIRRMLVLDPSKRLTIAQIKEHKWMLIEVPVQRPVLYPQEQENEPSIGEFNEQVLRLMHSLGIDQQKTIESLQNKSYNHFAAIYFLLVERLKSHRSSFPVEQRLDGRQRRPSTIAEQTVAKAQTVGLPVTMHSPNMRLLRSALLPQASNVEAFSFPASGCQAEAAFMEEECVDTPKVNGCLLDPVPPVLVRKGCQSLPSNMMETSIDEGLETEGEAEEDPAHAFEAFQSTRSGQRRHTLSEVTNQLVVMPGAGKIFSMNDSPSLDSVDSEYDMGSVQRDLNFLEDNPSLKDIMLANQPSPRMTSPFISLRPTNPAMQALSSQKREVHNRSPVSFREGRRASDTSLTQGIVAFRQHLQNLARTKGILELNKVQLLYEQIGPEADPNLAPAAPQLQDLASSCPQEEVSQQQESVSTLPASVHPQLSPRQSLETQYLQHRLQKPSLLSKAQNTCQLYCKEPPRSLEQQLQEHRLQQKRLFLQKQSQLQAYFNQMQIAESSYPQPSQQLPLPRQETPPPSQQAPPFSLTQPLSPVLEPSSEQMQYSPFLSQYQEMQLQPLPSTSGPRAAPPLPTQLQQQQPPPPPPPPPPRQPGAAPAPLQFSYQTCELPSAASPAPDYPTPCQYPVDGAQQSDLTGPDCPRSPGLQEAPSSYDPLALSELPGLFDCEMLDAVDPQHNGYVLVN
Sequence of Dual specificity mitogen-activated protein kinase kinase 3 (Homo sapiens) (P46734 whole entry, the tested form may be a part): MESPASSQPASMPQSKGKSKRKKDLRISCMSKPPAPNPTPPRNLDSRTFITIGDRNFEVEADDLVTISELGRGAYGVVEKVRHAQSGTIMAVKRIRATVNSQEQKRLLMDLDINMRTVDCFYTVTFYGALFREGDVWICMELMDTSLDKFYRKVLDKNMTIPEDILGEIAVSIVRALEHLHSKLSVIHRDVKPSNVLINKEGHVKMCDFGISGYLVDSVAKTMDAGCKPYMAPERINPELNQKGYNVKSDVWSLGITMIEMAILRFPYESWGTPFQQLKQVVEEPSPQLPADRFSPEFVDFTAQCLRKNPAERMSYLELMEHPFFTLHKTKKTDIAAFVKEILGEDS
Sequence of Casein kinase I isoform gamma-3 (Homo sapiens) (Q9Y6M4 whole entry, looked up, the tested form may be a part, canonical isoform): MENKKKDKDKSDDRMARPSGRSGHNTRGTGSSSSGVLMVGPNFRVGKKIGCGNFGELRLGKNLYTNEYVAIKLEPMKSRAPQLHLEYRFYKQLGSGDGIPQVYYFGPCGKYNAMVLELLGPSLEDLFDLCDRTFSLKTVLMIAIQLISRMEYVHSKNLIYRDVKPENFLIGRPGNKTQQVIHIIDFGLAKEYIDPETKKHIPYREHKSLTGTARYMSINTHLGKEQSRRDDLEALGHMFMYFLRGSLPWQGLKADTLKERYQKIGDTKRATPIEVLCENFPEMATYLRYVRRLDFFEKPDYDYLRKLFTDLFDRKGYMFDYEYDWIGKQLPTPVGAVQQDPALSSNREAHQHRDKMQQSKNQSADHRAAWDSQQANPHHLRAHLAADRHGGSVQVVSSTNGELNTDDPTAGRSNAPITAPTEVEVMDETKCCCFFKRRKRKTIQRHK
Sequence of Activin receptor type-1B (Homo sapiens) (P36896 whole entry, the tested form may be a part): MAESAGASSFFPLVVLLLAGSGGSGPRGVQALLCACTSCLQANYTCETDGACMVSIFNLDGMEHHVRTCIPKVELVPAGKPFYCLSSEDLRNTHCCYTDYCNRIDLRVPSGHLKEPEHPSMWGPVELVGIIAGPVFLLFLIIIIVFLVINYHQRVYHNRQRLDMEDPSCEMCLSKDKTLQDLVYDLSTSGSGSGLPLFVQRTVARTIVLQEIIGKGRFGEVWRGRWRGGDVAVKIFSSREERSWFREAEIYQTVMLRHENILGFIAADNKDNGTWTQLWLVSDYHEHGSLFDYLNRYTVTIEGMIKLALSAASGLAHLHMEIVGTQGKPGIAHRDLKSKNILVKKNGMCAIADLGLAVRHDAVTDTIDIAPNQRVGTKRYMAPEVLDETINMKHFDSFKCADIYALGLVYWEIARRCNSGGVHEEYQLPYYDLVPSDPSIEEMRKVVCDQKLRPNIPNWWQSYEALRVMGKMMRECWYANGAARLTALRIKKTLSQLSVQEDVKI
Sequence of Proto-oncogene tyrosine-protein kinase receptor Ret (Homo sapiens), P07949 [V804M] (P07949 whole entry V804M, the tested form may be a part): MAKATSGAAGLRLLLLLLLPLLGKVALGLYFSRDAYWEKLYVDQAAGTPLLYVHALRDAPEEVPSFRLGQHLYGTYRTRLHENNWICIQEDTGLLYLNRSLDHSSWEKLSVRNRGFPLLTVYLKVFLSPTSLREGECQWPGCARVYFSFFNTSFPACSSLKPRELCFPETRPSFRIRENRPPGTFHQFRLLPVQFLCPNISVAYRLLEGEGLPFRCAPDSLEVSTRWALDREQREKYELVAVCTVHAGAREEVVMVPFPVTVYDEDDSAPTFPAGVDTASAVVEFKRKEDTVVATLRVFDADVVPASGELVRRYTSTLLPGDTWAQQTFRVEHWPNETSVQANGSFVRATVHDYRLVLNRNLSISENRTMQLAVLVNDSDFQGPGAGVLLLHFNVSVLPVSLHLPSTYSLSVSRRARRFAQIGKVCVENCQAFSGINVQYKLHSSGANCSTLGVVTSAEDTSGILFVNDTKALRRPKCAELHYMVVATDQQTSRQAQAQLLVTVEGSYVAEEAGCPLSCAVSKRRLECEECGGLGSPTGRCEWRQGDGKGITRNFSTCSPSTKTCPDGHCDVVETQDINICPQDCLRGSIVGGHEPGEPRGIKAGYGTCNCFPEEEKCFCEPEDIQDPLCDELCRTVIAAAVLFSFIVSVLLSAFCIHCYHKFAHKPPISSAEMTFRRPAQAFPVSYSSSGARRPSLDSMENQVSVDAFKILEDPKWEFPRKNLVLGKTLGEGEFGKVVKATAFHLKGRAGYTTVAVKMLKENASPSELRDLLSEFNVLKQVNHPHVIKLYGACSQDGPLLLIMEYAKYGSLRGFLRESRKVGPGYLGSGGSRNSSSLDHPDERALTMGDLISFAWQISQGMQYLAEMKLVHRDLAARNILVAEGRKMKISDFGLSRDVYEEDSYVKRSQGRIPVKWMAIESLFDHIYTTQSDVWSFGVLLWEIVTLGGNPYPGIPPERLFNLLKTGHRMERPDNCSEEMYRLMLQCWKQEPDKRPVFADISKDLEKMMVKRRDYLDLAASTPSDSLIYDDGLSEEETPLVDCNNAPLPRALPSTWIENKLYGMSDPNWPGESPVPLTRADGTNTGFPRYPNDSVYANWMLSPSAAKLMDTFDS
Sequence of G protein-coupled receptor kinase 3 (Homo sapiens) (P35626 whole entry, the tested form may be a part): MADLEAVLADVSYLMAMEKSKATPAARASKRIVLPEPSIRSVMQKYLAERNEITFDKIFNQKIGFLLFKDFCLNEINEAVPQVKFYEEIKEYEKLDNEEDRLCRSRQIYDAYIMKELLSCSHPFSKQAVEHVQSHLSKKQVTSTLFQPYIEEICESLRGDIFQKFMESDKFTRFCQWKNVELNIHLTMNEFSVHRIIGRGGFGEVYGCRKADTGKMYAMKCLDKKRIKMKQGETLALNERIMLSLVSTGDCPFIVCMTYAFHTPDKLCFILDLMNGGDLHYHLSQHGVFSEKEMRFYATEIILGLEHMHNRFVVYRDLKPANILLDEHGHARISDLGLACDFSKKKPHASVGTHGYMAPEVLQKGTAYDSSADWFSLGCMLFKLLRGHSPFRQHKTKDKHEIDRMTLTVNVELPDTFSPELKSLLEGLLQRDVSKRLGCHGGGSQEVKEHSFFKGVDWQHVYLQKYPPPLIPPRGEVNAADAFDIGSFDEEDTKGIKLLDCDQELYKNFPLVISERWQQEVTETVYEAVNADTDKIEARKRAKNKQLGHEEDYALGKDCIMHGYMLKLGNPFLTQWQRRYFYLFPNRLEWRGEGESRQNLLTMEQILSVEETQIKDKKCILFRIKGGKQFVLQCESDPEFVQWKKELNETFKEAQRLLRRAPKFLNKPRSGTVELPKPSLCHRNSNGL

In the case of `C=CC(=O)Nc1cc(Nc2cc(-c3cccc(NC(=O)c4ccc(C(C)(C)C)cc4)c3C)cn(C)c2=O)ccc1C(=O)N1CCOCC1`, the Activity [1] is reported as 92%, the Activity [2] is reported as 92% and the Activity [3] is reported as 70%. It also gave an Activity [4] of 100%, an Activity [5] of 87% and an MRT last [6] of 15.6 min. For the same compound, the Activity [7] was 100%, the Activity [8] was 97% and the Activity [9] was 87%. For the same compound, the Activity [10] was 98%, the Activity [11] was 100% and the Activity [12] was 96%. For the same compound, the Activity [13] was 81%, the Activity [14] was 92% and the Activity [15] was 90%. It also gave an Activity [16] of 58%, an AUC(0-inf) [17] of 34.5 ng·h/mL and an Activity [18] of 100%. The Activity [19] was 100%, the Activity [20] was 96% and the Activity [21] was 97%. It also gave an Activity [22] of 82%, an Activity [23] of 73% and an Activity [24] of 88%. It also gave an Activity [25] of 90% and an AUC(0-t) [26] of 22 ng·h/mL.

Reference: ChEMBL document CHEMBL4024706 (Eur J Med Chem, 2017)
